Experimental data as given in PMC8650221 (Biochemistry, 2021).
Where two headings read alike, the source gives them in different places.

What was measured:
T100’A OMPDC [1] = target: T1, T100’A OMPDC (Saccharomyces cerevisiae, UniProt P03962, T100A); format: biochemical; details: pH 7.0, 25 °C, I = 0.15 (NaCl); for (kcat/Km)E•Act/Kd: activated decarboxylation of FO, T100’A OMPDC; for Kd: activator of T100’A OMPDC-catalyzed decarboxylation of FO
wild type OMPDC [2] = details: cited from earlier work; for stabilization of the transition state for OMPDC-catalyzed decarboxylation of FO by activator (ΔG^‡act): 1.0 M dianion activator; for (kcat/Km)E•Act/Kd: activated decarboxylation of FO, pH 7.0, 25 °C, I = 0.15 (NaCl)
D37G OMPDC [3] = target: T2, D37G OMPDC (Saccharomyces cerevisiae, UniProt P03962, D37G); assay: D37G variant OMPDC-catalyzed decarboxylation of FO, dianion-activated; format: biochemical
adenylate kinase = details: cited from earlier work
wild type OMPDC [4] = details: cited from earlier work
T100’A OMPDC [5] = target: T1, T100’A OMPDC; assay: T100’A variant OMPDC-catalyzed decarboxylation of OMP; format: biochemical
D37G OMPDC [6] = target: T2, D37G OMPDC; assay: D37G variant OMPDC-catalyzed decarboxylation of OMP; format: biochemical
wild type OMPDC [7] = details: cited from earlier work; remark: listed apart in the source
D37G OMPDC [8] = target: T2, D37G OMPDC; format: biochemical; details: phosphite dianion activation of D37G-catalyzed decarboxylation of EO, pH 7.0, 25 °C, I = 0.14 (NaCl)

T1 sequence (P03962 whole entry T100A): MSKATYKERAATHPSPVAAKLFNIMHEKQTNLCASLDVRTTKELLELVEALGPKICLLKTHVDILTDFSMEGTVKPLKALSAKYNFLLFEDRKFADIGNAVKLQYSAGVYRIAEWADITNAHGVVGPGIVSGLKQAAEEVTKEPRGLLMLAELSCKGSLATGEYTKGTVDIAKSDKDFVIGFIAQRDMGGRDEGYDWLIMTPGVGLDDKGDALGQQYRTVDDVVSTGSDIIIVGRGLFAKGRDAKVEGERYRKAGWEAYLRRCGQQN
T2 sequence (P03962 whole entry D37G): as the sequence (P03962 whole entry T100A) above, with D37G, A100T counted along it

Compound | (kcat/Km)E•Act/Kd (T100’A OMPDC [1]) | stabilization of the transition state for OMPDC-catalyzed decarboxylation of FO by activator (ΔG^‡act) (wild type OMPDC [2]) [kcal/mol] | (kcat/Km)E•Act/Kd (wild type OMPDC [2]) | Kd (T100’A OMPDC [1]) | other results
O=P(O)(O)OC[C@@H](O)[C@@H](O)CO [DE4P, D-erythritol 4-phosphate] | (5.4 ± 0.1) × 10^−3 M^−2 s^−1 | 9.0 | 6.0 × 10^−1 M^−2 s^−1 |  | Kd (D37G OMPDC [3]): 3 mM
Nc1ncnc2c1ncn2[C@@H]1O[C@H](COP(=O)(O)O)[C@@H](O)[C@H]1O [AMP] |  |  |  |  | transition state stabilization by interactions with the adenosyl group (adenylate kinase; enzyme-catalyzed phosphoryl transfer from ATP (to AMP)): ≥ 14.7 kcal/mol
Nc1c2ncnc-2ncn1[C@@H]1OC[C@@H](O)[C@H]1O [(1-β-D-erythrofuranosyl)adenine] |  |  |  |  | transition state stabilization by interactions with the substrate piece (adenylate kinase; phosphoryl transfer from ATP to phosphite dianion): ≥ 8.7 kcal/mol
O=C(O)c1cc(=O)[nH]c(=O)n1[C@@H]1O[C@H](COP(=O)(O)O)[C@@H](O)[C@H]1O [OMP, orotidine 5’-monophosphate] |  |  |  |  | stabilization of the Michaelis complex (wild type OMPDC [4]; Michaelis complex of OMPDC to OMP): 8 kcal/mol; transition state stabilization (wild type OMPDC [4]; OMPDC-catalyzed decarboxylation of OMP): 31 kcal/mol; intrinsic dianion binding energy (wild type OMPDC [4]; wild type OMPDC, from ratio of kcat/Km for OMP and EO): 11.7 kcal/mol; intrinsic dianion binding energy (T100’A OMPDC [5]; T100’A OMPDC, calculated from ratio of kcat/Km for OMP and EO (Table 1)): 10.8 kcal/mol; decrease in transition state stabilization by protein interactions with the substrate dianion (T100’A OMPDC [5]; effect of T100’A substitution, decarboxylation of OMP): 0.9 kcal/mol; intrinsic dianion binding energy (D37G OMPDC [6]; D37G OMPDC, calculated from ratio of kcat/Km for OMP and EO (Table 1)): 11.0 kcal/mol; decrease in transition state stabilization by protein interactions with the substrate dianion (D37G OMPDC [6]; effect of D37G substitution, decarboxylation of OMP): 0.7 kcal/mol
O=P(O)(O)OC[C@H](O)CO [LG3P, L-glycerol 3-phosphate] | (5.3 ± 0.2) × 10^−4 M^−2 s^−1 |  | 1.0 × 10^−3 M^−2 s^−1 | Kd >> [LG3P]^e | 
O=P(O)(O)OCC(O)CO [DG3P, D-glycerol 3-phosphate] |  | 7.2 | 2.5 × 10^−2 M^−2 s^−1 |  | 
O=P(O)(O)OCC(O)CO (racemic) [DLG3P, D,L-glycerol 3-phosphate] | (1.7 ± 0.2) × 10^−3 M^−2 s^−1 |  | 1.3 × 10^−2 M^−2 s^−1 | 94 ± 8 mM | 
O=[PH](O)O [HPO3^2−, phosphite dianion] | (1.87 ± 0.03) × 10^−4 M^−2 s^−1 | 5.2 | 8.4 × 10^−4 M^−2 s^−1 | Kd >> [HPO3^2−]^e | Kd (D37G OMPDC [3]; activator of D37G OMPDC-catalyzed decarboxylation of FO, pH 7.0, 25 °C, I = 0.15 (NaCl)): 4.7 mM; Kd (D37G OMPDC [3]; phosphite dianion activation of D37G-catalyzed decarboxylation of FO): 4.7 mM; ΔG^‡act, stabilization of the decarboxylation transition state by phosphite dianion (wild type OMPDC [7]; decarboxylation of EO, wild type OMPDC): 7.7 kcal/mol; Kd (wild type OMPDC [7]; productive (observed) binding of phosphite dianion activator to wild type OMPDC or variant enzymes): ~100 mM; Kd (D37G OMPDC [8]): 5.1 mM
